The source of these data is patent US12076334B2, “Pharmaceutical composition comprising adenosine derivative for prevention and treatment of retinal disease or optic nerve disease” (FUTURE MEDICINE CO., LTD., priority 2017, dated 2024).

Each structure is given as a SMILES string. Read-outs that look alike come from different tables or passages of the source.

Series [1] in a line: Cytotoxicity of glutamic acid (cell viability, cell proliferation assay kit). The format is cell-based. To be noted: mouse; 0-9 mM, 24 hours incubation.
Series [2] relates to photoreceptor cells derived from the mouse retina. Nature of the series: Mitochondrial membrane potential analysis (JC-1, flow cytometer). The format is cell-based. Conditions: for R2 (cell distribution, JC-1 flow cytometry): normal control 13.78 ± 1.12; for R1 (cell distribution, JC-1 flow cytometry): normal control 86.22 ± 1.12. On the procedure: The prepared solution was stored at −20° C. until use. In addition, 10 mg of CCCP was dissolved in 1 mL of DMSO to prepare a 50 mM CCCP solution. The prepared solution was stored at −20° C. until use. Treatment of the test material was performed after diluting with a serum-free cell culture medium in 1:1000 (v/v). The control group was treated after diluting with DMSO in 1:1000 v/v).
Intracellular mitochondrial cell membrane potential was analyzed using JC-1 reagent. […] Thereafter, […] of JC-1 was treated and incubated for 30 minutes.
A general note: In flow cytometry, cells or beads pass a laser one at a time.

Series [3] has as its system mouse retina-derived photoreceptor cell. Nature of the series: Immunoblot of apoptosis-related proteins in glutamic acid-treated photoreceptor cells. It counts as cell-based. On the procedure: (§1) Compound A to be used as a test material was prepared by dissolving in DMSO. The prepared solution was stored at −20° C. until use. In addition, 10 mg of CCCP was dissolved in 1 mL of DMSO to prepare a 50 mM CCCP solution. The prepared solution was stored at −20° C. until use. Treatment of the test material was performed after diluting with a serum-free cell culture medium in 1:1000 (v/v). The control group was treated after diluting with DMSO in 1:1000 v/v).
In order to confirm the efficacy of a test material for angiogenesis-related response and inflammatory response of a mouse retina-derived photoreceptor cell, cells cultured for 24 hours under various conditions were collected and intracellular protein was extracted by using a PRO-PREP protein extraction kit. Quantification of the extracted protein was measured using a BCA protein assay kit. 40 μg of protein was separated by 10% SDS-PAGE and then attached to a PVDF membrane. The protein-attached membrane was reacted with Tris-buffered saline with 0.1% Tween-20 (TBST) containing 5% skim milk for 30 minutes, followed by reactions of primary and secondary antibodies in sequence. The protein expression level was confirmed using photograph by a Fusion Fximage acquisition system. The protein expression level was analyzed by expressing as a relative value using ImageJ.
A general note: Immunoblotting shows a protein as a band on a membrane.

The subject of series [4] is caspase 3/7. Nature of the series: Caspase 3/7 activity assay (Caspase-Glo 3/7). It counts as cell-based, mouse. Conditions: pretreatment 1 hour, then 5 mM glutamic acid 24 hours. On the procedure: The activity of intracellular caspase 3/7 was analyzed by Caspase-Glo 3/7 assay system. […] After adding the kit solution in the same amount as the cell culture medium and reacting for 1 hour, the relative activity was analyzed by measuring the amount of generated luminescence through a microplate reader.

The test system of series [5] is photoreceptor cells derived from mouse retina. Nature of the series: ELISA of intracellular inflammatory cytokines (TNFα, IL-1β, IL-6) in HMGB-1-treated photoreceptor cells. Conditions: increased by HMGB-1, 24 h. It counts as cell-based. On the procedure:
(§2) Compound A to be used as a test material was prepared by dissolving in DMSO. The prepared solution was stored at −20° C. until use. Treatment of the test material was treated after diluting to 1:1000 (v/v) in a serum-free cell culture medium. The control group was treated after diluting to 1:1000 (v/v) in DMSO.
In order to confirm the efficacy of the test material in reactions related to angiogenesis and inflammatory response of photoreceptor cells derived from mouse retina, cells cultured for 24 hours under various conditions were recovered and intracellular proteins were extracted using a PRO-PREP protein extraction kit. Quantification of the extracted protein was measured using a BCA protein assay kit. Quantitative analysis of inflammatory cytokines (TNFα, IL-1β, IL-6) present in the cells was analyzed with each ELISA kit.
On the technique in general: In an ELISA, binding on a coated surface is turned into a signal by an enzyme label.

In series [6] the test system is caspase 8. Nature of the series: Caspase 8 activity assay (Caspase-Glo 8). It counts as cell-based, mouse. To be noted: pretreatment 1 hour, then 5 mM glutamic acid 24 hours. On the procedure:
The activity of intracellular caspase 8 was analyzed by Caspase-Glo 8 assay system. […] After adding the kit solution in the same amount as the cell culture medium and reacting for 1 hour, the relative activity was analyzed by measuring the amount of generated luminescence through a microplate reader.

For series [7], the system named is photoreceptor cells derived from mouse retina. Nature of the series: RT-PCR mRNA expression of angiogenesis- and inflammation-related factors in HMGB-1-treated photoreceptor cells. It counts as cell-based. To be noted: increased by HMGB-1, 6 h. On the procedure:
as §2
In order to confirm the efficacy of the test material in reactions related to angiogenesis and inflammatory response of photoreceptor cells derived from mouse retina, cells cultured for 6 hours under various conditions were treated with TRIzol solution to isolate total RNA in cells. After the cDNA was synthesized using specific primers for the target gene (Table 2) and reverse transcriptase in the isolated total RNA, expression of the related factors was confirmed. mRNA expression levels were analyzed by expressing as relative values using ImageJ software.

Series [8] relates to photoreceptor cells derived from the mouse retina. Nature of the series: Cell protective effect against glutamic acid-induced cell death (cell viability). The format is cell-based. Conditions: n=6, read-out: EC50 (50% effective concentration), protection from glutamic acid-induced apoptosis. Here is the method:
as §1
This experimental result means that Compound A has a protective effect against glutamic acid-induced apoptosis.

Series [9] shares this test system. Nature of the series: TUNEL assay and DAPI staining of glutamic acid-induced apoptosis. It counts as cell-based. To be noted: pretreated 1 μM 1 hour, then 5 mM glutamic acid 8 hours; vs glutamic acid only. Here is the method: as §1
Quantitative analysis of apoptosis cells was analyzed by DeadEnd™ Fluorometric TUNEL System. […] Cells were washed twice with PBS and fixed with 10% formalin for 15 minutes. Fixed cells were exposed to 0.1% Triton X-100 for 10 minutes. After the cells were reacted with dUTP containing fluorescence, the cut DNA portion was stained and then fixed on a slide with a mounting solution containing DAPI. The stained cells were observed through a fluorescence microscope.

The subject of series [10] is photoreceptor cells derived from mouse retina. Nature of the series: Immunoblot of angiogenesis- and inflammation-related proteins in HMGB-1-treated photoreceptor cells. The format is cell-based. Conditions: 24 h. On the procedure: as §2
In order to confirm the efficacy of the test material in reactions related to angiogenesis and inflammatory response of photoreceptor cells derived from mouse retina, cells cultured for 24 hours under various conditions were recovered and intracellular proteins were extracted using a PRO-PREP protein extraction kit. Quantification of the extracted protein was measured using a BCA protein assay kit. 40 μg of protein was separated by 10% SDS-PAGE and then attached to the PVDF membrane. The protein-attached membrane was reacted with TBST (Tris-buffered saline with 0.1% Tween-20) containing 5% skim milk for 30 minutes and the primary antibody and secondary antibody were reacted in sequence. The protein expression level was confirmed by photographing using a Fusion Fximage acquisition system. The protein expression level was analyzed by relative values using ImageJ.
In relation to high mobility group box 1 (HMGB-1), it has been reported that the expression of HMGB-1 was increased when pressure was applied to photoreceptor cells derived from the mouse retina, and when HMGB-1 was treated to photoreceptor cells, angiogenesis-related factors and inflammatory responses increase (Bohm M R et al., Lab Invest, 96, 409-427, 2016). Accordingly, in the present disclosure, the efficacy of adenosine derivatives against angiogenic response and inflammatory response according to damage to photoreceptor cells was verified based on the above reference.

Series [11] shares this test system. Nature of the series: ELISA of VEGF in medium of HMGB-1-treated photoreceptor cells. The format is cell-based. Conditions: increased by HMGB-1; Compound A 0.1 μM or more; 24 h. On the procedure: as §2
In order to confirm the efficacy of the test material in reactions related to angiogenesis of photoreceptor cells derived from mouse retina, the medium of cells cultured for 24 hours under various conditions was collected after centrifugation. Quantitative analysis of VEGF present in the medium was analyzed with the Mouse VEGF Quantikine ELISA Kit.

The mark [12] stands for this setting: cells treated with the agent only (glutamic acid 5 mM 6 hours, or CCCP).
[13] abbreviates: changed by glutamic acid, pretreated with Compound A.
[14] abbreviates: increased by glutamic acid, pretreated with Compound A.
Where [15] appears, read: pretreatment of Compound A, glutamic acid-treated cells.
The mark [16] stands for this setting: pretreated with 1 μM Compound A 1 hour, then 5 mM glutamic acid 6 hours.
[17] abbreviates: HMGB-1 (5 μg/mL), Compound A 2 μM.
Setting [18] is: HMGB-1 (5 μg/mL), Compound A at least 0.1 μM.
[19] abbreviates: HMGB-1 (5 μg/mL), Compound A at least 0.5 μM.
The mark [20] stands for this setting: increased by HMGB-1 (5 μg/mL), Compound A at least 0.5 μM.

Regarding `N[C@@H](CCC(=O)O)C(=O)O` [glutamic acid], in [1], 5100 ± 500 µM corresponded to half-maximal inhibition (IC50 at 24 h). In addition, in [2] (setting [12]), the “R2 (cell distribution, JC-1 flow cytometry)” value amounted to 63.87 ± 10.42 and the “R1 (cell distribution, JC-1 flow cytometry)” value was found to be 36.13 ± 10.42.
Regarding `O[C@@H]1[C@H](O)CS[C@H]1n1cnc2c(NCc3cccc(Cl)c3)nc(Cl)nc21` [Compound A, (2R,3R,4S)-2-(2-chloro-6-(3-chlorobenzylamino)-9H-purin-9-yl)tetrahydrothiophene-3,4-diol], in series [3] (setting [13]), the BID protein expression entry was “recovered to the same expression level as the normal group”, the Bad protein expression entry is “recovered to the same expression level as the normal group”, the Bcl2 protein expression entry is on record as “recovered to the same expression level as the normal group” and the pBad protein expression result is given as “recovered to the same expression level as the normal group”. Also, the pBcl2 protein expression result in series [3] (setting [13]) is listed as “recovered to the same expression level as the normal group”. Besides, in series [3] (decreased by glutamic acid, pretreated with Compound A), the RIP protein expression entry is recorded as “increased again in a concentration-dependent manner”. In series [3] (setting [14]), the “caspase 8 protein expression” value was “significantly decreased”, the “cleaved caspase 3 protein expression” value was “significantly decreased” and the “cleaved caspase 9 protein expression” value is on record as “significantly decreased”. In [3] (setting [15]), the “expression of AIF in the nucleus” value is recorded as “decreased significantly” and the “expression of cytochrome c in the cytoplasm” value was “decreased significantly”. Moreover, the “activity of caspase 3/7” value in [4] is “inhibited in a concentration-dependent manner”. Further, the “amount of TNFα in cells (ELISA)” value in [5] (Compound A 0.1 μM or higher) is listed as “significantly reduced”. Besides, in series [5] (Compound A 1 μM or higher), the “amount of IL-1β in cells (ELISA)” value was “significantly reduced” and the “amount of IL-6 in cells (ELISA)” value is listed as “significantly reduced”. Moreover, the “activity of caspase 8” value in series [6] is listed as “inhibited in a concentration-dependent manner”. Further, in [7] (Compound A 0.1 μM or more), the “COX2 mRNA expression” value is listed as “significantly inhibited”, the “IL-6 mRNA expression” value was “significantly inhibited”, the “VEGF mRNA expression” value is listed as “significant decrease” and the “VEGFR1 mRNA expression” value is “significant decrease”. In [7] (Compound A 0.5 μM or more), the “MMP9 mRNA expression” value is “significantly reduced”, the “TNFα mRNA expression” value is reported as “significantly reduced” and the “VEGFR2 mRNA expression” value is listed as “significantly decreased”. For the same compound, in [7] (Compound A 1 μM or more), the “ICAM1 mRNA expression” value was “significantly reduced”, the “MMP2 mRNA expression” value is recorded as “significantly reduced” and the “VCAM1 mRNA expression” value was “significantly reduced”. In addition, the EC50 in series [8] (pretreatment for 30 min) came to 0.31 ± 0.08 µM. Besides, the EC50 in series [8] (pretreatment for 1 hour) was determined as 0.35 ± 0.06 µM. Moreover, the “number of TUNEL-positive nuclei” value in series [9] is “significantly reduced”. Also, in series [2] (setting [16]), the “R2 (cell distribution, JC-1 flow cytometry)” value is recorded as 28.30 ± 1.60 and the “R1 (cell distribution, JC-1 flow cytometry)” value was 71.70 ± 1.60. Further, in [10] (setting [17]), the ANG1 protein expression result was “significantly increased”, the ICAM1 protein expression result was “significantly decreased” and the VCAM1 protein expression result is given as “significantly decreased”. Moreover, in [10] (setting [18]), the ANG2 protein expression entry is on record as “significantly decreased”, the MMP9 protein expression entry was “significantly decreased” and the VEGFR1 protein expression result is given as “significantly decreased”. Also, in [10] (setting [19]), the COX2 protein expression entry is listed as “significantly reduced” and the MMP2 protein expression entry is reported as “significantly reduced”. In series [10] (setting [20]), the VEGF protein expression result was “significantly reduced” and the VEGFR2 protein expression result was “significantly reduced”. The “amount of VEGF (ELISA, medium)” value in series [11] was “significantly decreased”.
In the case of `N#CC(C#N)=NNc1cccc(Cl)c1` [CCCP], in series [2] (setting [12]), the “R2 (cell distribution, JC-1 flow cytometry)” value was 90.58 ± 1.48 and the “R1 (cell distribution, JC-1 flow cytometry)” value is recorded as 9.42 ± 1.48.
